The assay deals with PDE4B (Homo sapiens, UniProt Q07343). The assay can be described thus: Scintillation Proximity (SPA) Assay of PDE4B enzyme inhibition. The class given is biochemical. The settings on record: read-out: % Inhibition PDE4B @ 1 μM. Here is the method: The inhibitions (in %) at 1 μM of the individual Example substances are included in the following Tables of Examples and were determined as follows:
The Scintillation Proximity (SPA) Assays (GE Healthcare, No. TRKQ7090) make use of the different affinities of cyclic 3′-5′-adenosine monophosphate (cAMP, low affinity) and linear 5′-adenosine monophosphate (AMP, high affinity) for yttrium silicate scintillator beads. The cAMP specific phosphodiesterase (PDE) PDE4B cleaves the 3′-phosphoester bond of the tritium-labelled [H3]-cAMP to form the [H3]-5′-AMP. Because of its higher affinity for the scintillator beads this [H3]-AMP accumulates on the beads and causes scintillation events (flashes of light) which are measured in a Wallac Microbeta Scintillation Counter.
The test starts with one hours incubation of [H3]-cAMP with the PDE4B enzyme in assay buffer at 30° C., once with the Example substance that is to be tested (in a concentration of 1 μM) and once without the Example substance that is to be tested. After this incubation the reaction is stopped by the addition of the beads. The beads are given an opportunity to settle over the next 45 minutes, then they are measured in the Scintillation Counter. If the substance is capable of inhibiting the enzymatic activity of the PDE4B, less [H3]-AMP is formed during the incubation phase and fewer scintillation events can be measured.

[1] abbreviates: test substance 1 μM, one hour incubation of [H3]-cAMP with PDE4B enzyme at 30° C.

The term inhibition denotes the share of the control response that was lost under treatment.

Like-named read-outs stand apart in the source and are kept apart here.

Sequence of PDE4B (Q07343 whole entry, species assumed): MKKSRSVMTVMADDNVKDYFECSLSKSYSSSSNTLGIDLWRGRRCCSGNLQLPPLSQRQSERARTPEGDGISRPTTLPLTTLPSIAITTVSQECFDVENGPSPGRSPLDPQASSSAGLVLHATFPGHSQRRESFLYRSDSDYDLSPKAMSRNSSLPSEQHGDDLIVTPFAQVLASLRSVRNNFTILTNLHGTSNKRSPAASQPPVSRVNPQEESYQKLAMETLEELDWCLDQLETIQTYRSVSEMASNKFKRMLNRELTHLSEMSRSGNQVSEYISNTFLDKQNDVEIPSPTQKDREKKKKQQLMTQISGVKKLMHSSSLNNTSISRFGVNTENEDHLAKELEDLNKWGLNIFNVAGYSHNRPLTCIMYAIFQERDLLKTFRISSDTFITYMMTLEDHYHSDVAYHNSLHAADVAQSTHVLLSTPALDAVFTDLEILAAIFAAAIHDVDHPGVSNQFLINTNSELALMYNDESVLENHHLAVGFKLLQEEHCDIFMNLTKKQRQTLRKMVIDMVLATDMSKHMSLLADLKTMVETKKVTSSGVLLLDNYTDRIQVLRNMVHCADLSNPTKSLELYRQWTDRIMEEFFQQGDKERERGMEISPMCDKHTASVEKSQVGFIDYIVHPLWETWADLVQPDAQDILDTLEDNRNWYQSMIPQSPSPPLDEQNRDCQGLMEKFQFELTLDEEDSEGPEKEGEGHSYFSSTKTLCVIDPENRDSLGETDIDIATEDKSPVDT

As to `CC(C)[C@H](CO)Nc1nc(N2CCN(c3ccccc3C#N)CC2)nc2c1[S+]([O-])CC2` (stereo partly drawn) [Example 2, 2-{4-[4-((R)-1-hydroxymethyl-2-methylpropylamino)-5-oxo-6,7-dihydro-5H-5λ^4-thieno[3,2-d]pyrimidin-2-yl]piperazin-1-yl}-benzonitrile], the inhibition at 1 µM under setting [1] is 92%.
`CC(C)[C@H](CO)Nc1nc(N2CCN(c3ccccc3Cl)CC2)nc2c1[S+]([O-])CC2` (stereo partly drawn) [Example 4, (R)-2-{2-[4-(2-CHLOROPHENYL)-PIPERAZIN-1-YL]-5-OXO-6,7-DIHYDRO-5H-5λ^4-THIENO[3,2-D]PYRIMIDIN-4-YLAMINO}-3-METHYLBUTAN-1-OL]: the inhibition at 1 µM under setting [1] came out at 88%.
As for `[O-][S+]1CCc2nc(N3CCN(c4ccccc4Cl)CC3)nc(NC3(CO)CC3)c21` (stereo not drawn) [Example 7, (1-{2-[4-(2-chlorophenyl)-piperazin-1-yl]-5-oxo-6,7-dihydro-5H-5λ^4-thieno[3,2-d]pyrimidin-4-ylamino}-cyclopropyl)-methanol], the inhibition at 1 µM under setting [1] was 94%.
Still for that read-out and setting: the figure for `CN1C[C@@H](Nc2nc(N3CCN(c4ccccc4Cl)CC3)nc3c2[S+]([O-])CC3)CCC1=O` (stereo partly drawn) [Example 14, (S)-5-{2-[4-(2-chlorophenyl)-piperazin-1-yl]-5-oxo-6,7-dihydro-5H-5λ^4-thieno[3,2-d]pyrimidin-4-ylamino}-1-methylpiperidin-2-one] is 96%.
On to `[O-][S+]1CCc2nc(N3CCN(c4ccccc4Cl)CC3)nc(NC3CCOCC3)c21` (stereo not drawn) [Example 19, {2-[4-(2-chlorophenyl)-piperazin-1-yl]-5-oxo-6,7-dihydro-5H-5λ^4-thieno[3,2-d]pyrimidin-4-yl}-(tetrahydropyran-4-yl)-amine], for which the inhibition at 1 µM under setting [1] stood at 95%.
For `COc1ccccc1N1CCN(c2nc3c(c(Nc4cccc(F)c4)n2)[S+]([O-])CC3)CC1` (stereo not drawn) [Example 21, (3-FLUOROPHENYL)-{2-[4-(2-METHOXYPHENYL)-PIPERAZIN-1-YL]-5-OXO-6,7-DIHYDRO-5H-5λ^4-THIENO[3,2-D]PYRIMIDIN-4-YL}-AMINE], under setting [1], the inhibition at 1 µM came to 96%.
Take `N#Cc1ccccc1N1CCN(c2nc3c(c(Nc4cccc(F)c4)n2)[S+]([O-])CC3)CC1` (stereo not drawn) [Example 22, 2-{4-[4-(3-FLUOROPHENYLAMINO)-5-OXO-6,7-DIHYDRO-5H-5λ^4-THIENO[3,2-D]PYRIMIDIN-2-YL]-PIPERAZIN-1-YL}-BENZONITRILE]: the inhibition at 1 µM under setting [1] stood at 97%.
In the case of `[O-][S+]1CCc2nc(N3CCN(c4ccccc4Cl)CC3)nc(Nc3cccc(F)c3)c21` (stereo not drawn) [Example 24, {2-[4-(2-CHLOROPHENYL)-PIPERAZIN-1-YL]-5-OXO-6,7-DIHYDRO-5H-5λ^4-THIENO[3,2-D]PYRIMIDIN-4-YL}-(3-FLUOROPHENYL)-AMINE], under setting [1], the inhibition at 1 µM is 95%.
As for `CC(C)C(CO)Nc1nc(N2CCN(c3cccc(F)c3)CC2)nc2c1[S+]([O-])CC2` [Example 27, (R)-2-{2-[4-(3-FLUOROPHENYL)-PIPERAZIN-1-YL]-5-OXO-6,7-DIHYDRO-5H-5λ^4-THIENO[3,2-D]PYRIMIDIN-4-YLAMINO}-3-METHYLBUTAN-1-OL], the inhibition at 1 µM under setting [1] amounted to 96%.
`Cc1cccc(N2CCN(c3nc4c(c(NC(CO)C(C)C)n3)[S+]([O-])CC4)CC2)c1` [Example 30, (R)-3-METHYL-2-[5-OXO-2-(4-m-TOLYLPIPERAZIN-1-YL)-6,7-DIHYDRO-5H-5λ^4-THIENO[3,2-D]PYRIMIDIN-4-YLAMINO]-BUTAN-1-OL]: under setting [1], the inhibition at 1 µM was found to be 94%.
Still for that read-out and setting: the figure for `[O-][S+]1CCc2nc(N3CCN(c4cccc(F)c4)CC3)nc(NC3(CO)CC3)c21` (stereo not drawn) [Example 32, (1-{2-[4-(3-FLUOROPHENYL)-PIPERAZIN-1-YL]-5-OXO-6,7-DIHYDRO-5H-5λ^4-THIENO[3,2-D]PYRIMIDIN-4-YLAMINO}-CYCLOPROPYL)-METHANOL] is 97%.
Consider `CN1C[C@@H](Nc2nc(N3CCN(c4cccc(F)c4)CC3)nc3c2[S+]([O-])CC3)CCC1=O` (stereo partly drawn) [Example 37, (S)-5-{2-[4-(3-FLUOROPHENYL)-PIPERAZIN-1-YL]-5-OXO-6,7-DIHYDRO-5H-5λ^4-THIENO[3,2-D]PYRIMIDIN-4-YLAMINO}-1-METHYLPIPERIDIN-2-ONE], for which the inhibition at 1 µM came out at 97%.
`[O-][S+]1CCc2nc(N3CCN(c4cccc(F)c4)CC3)nc(NC3CCOCC3)c21` (stereo not drawn) [Example 42, {2-[4-(3-FLUOROPHENYL)-PIPERAZIN-1-YL]-5-OXO-6,7-DIHYDRO-5H-5λ^4-THIENO[3,2-D]PYRIMIDIN-4-YL}-(TETRAHYDROPYRAN-4-YL)-AMINE]: under setting [1], the inhibition at 1 µM was determined as 96%.
As to `[O-][S+]1CCc2nc(N3CCN(c4cccc(F)c4)CC3)nc(Nc3cccc(F)c3)c21` (stereo not drawn) [Example 47, (3-FLUOROPHENYL)-{2-[4-(3-FLUOROPHENYL)-PIPERAZIN-1-YL]-5-OXO-6,7-DIHYDRO-5H-5λ^4-THIENO[3,2-D]PYRIMIDIN-4-YL}-AMINE], the inhibition at 1 µM under setting [1] came out at 96%.
Take `Cc1cccc(N2CCN(c3nc4c(c(Nc5cccc(F)c5)n3)[S+]([O-])CC4)CC2)c1` (stereo not drawn) [Example 50, (3-FLUOROPHENYL)-[5-OXO-2-(4-m-TOLYLPIPERAZIN-1-YL)-6,7-DIHYDRO-5H-5λ^4-THIENO[3,2-D]PYRIMIDIN-4-YL]-AMINE]: the inhibition at 1 µM under setting [1] amounted to 96%.
`CC(C)C(CO)Nc1nc(N2CCN(c3ccc(Cl)c(C#N)c3)CC2)nc2c1[S+]([O-])CC2` [Example 53, 2-chloro-5-{4-[4-((R)-1-hydroxymethyl-2-methyl-propylamino)-5-oxo-6,7-dihydro-5H-5λ^4-thieno[3,2-d]pyrimidin-2-yl]-piperazin-1-yl}-benzonitrile]: the inhibition at 1 µM under setting [1] turned out to be 89%.
Same read-out and setting: the figure for `Cc1cc(N2CCN(c3nc4c(c(NC(CO)C(C)C)n3)[S+]([O-])CC4)CC2)ccc1Cl` [Example 54, (R)-2-{2-[4-(4-chloro-3-methylphenyl)-piperazin-1-yl]-5-oxo-6,7-dihydro-5H-5λ^4-thieno[3,2-d]pyrimidin-4-ylamino}-3-methylbutan-1-ol] is 63%.
Take `CCC[C@H](CO)Nc1nc(N2CCN(c3ccc(Cl)c(C(F)(F)F)c3)CC2)nc2c1[S+]([O-])CC2` (stereo partly drawn) [Example 56, (R)-2-{2-[4-(4-chloro-3-trifluoromethylphenyl)-piperazin-1-yl]-5-oxo-6,7-dihydro-5H-5λ^4-thieno[3,2-d]pyrimidin-4-ylamino}-pentan-1-ol]: the inhibition at 1 µM under setting [1] came to 94%.
With `[O-][S+]1CCc2nc(N3CCN(c4ccc(Cl)c(Cl)c4)CC3)nc(NC3(CO)CC3)c21` (stereo not drawn) [Example 57, (1-{2-[4-(3,4-DICHLOROPHENYL)-PIPERAZIN-1-YL]-5-OXO-6,7-DIHYDRO-5H-5λ^4-THIENO[3,2-D]PYRIMIDIN-4-YLAMINO}-CYCLOPROPYL)-METHANOL], under setting [1], the inhibition at 1 µM is 96%.
On to `[O-][S+]1CCc2nc(N3CCN(c4ccc(Cl)c(Cl)c4)CC3)nc(NC3CCOCC3)c21` (stereo not drawn) [Example 58, {2-[4-(3,4-DICHLOROPHENYL)-PIPERAZIN-1-YL]-5-OXO-6,7-DIHYDRO-5H-5λ^4-THIENO[3,2-D]PYRIMIDIN-4-YL}-(TETRAHYDROPYRAN-4-YL)-AMINE], for which the inhibition at 1 µM under setting [1] was 96%.
With `CN1C[C@@H](Nc2nc(N3CCN(c4ccc(Cl)c(Cl)c4)CC3)nc3c2[S+]([O-])CC3)CCC1=O` (stereo partly drawn) [Example 59, (S)-5-{2-[4-(3,4-DICHLOROPHENYL)-PIPERAZIN-1-YL]-5-OXO-6,7-DIHYDRO-5H-5λ^4-THIENO[3,2-D]PYRIMIDIN-4-YLAMINO}-1-METHYLPIPERIDIN-2-ONE], the inhibition at 1 µM is 96%.
As for `CC(C)C(CO)Nc1nc(N2CCN(c3ccc(Cl)c(F)c3)CC2)nc2c1[S+]([O-])CC2` [Example 60, (R)-2-{2-[4-(4-chloro-3-fluorophenyl)-piperazin-1-yl]-5-oxo-6,7-dihydro-5H-5λ^4-thieno[3,2-d]pyrimidin-4-ylamino}-3-methylbutan-1-ol], the inhibition at 1 µM under setting [1] was 94%.
As for `[O-][S+]1CCc2nc(N3CCN(c4ccc(Cl)c(F)c4)CC3)nc(NC3(CO)CC3)c21` (stereo not drawn) [Example 61, (1-{2-[4-(4-CHLORO-3-FLUOROPHENYL)-PIPERAZIN-1-YL]-5-OXO-6,7-DIHYDRO-5H-5λ^4-THIENO[3,2-D]PYRIMIDIN-4-YLAMINO}-CYCLOPROPYL)-METHANOL], the inhibition at 1 µM under setting [1] is 95%.
For `[O-][S+]1CCc2nc(N3CCN(c4ccc(Cl)c(F)c4)CC3)nc(NC3CCOCC3)c21` (stereo not drawn) [Example 62, {2-[4-(4-CHLORO-3-FLUOROPHENYL)-PIPERAZIN-1-YL]-5-OXO-6,7-DIHYDRO-5H-5λ^4-THIENO[3,2-D]PYRIMIDIN-4-YL}-(TETRAHYDROPYRAN-4-YL)-AMINE], the inhibition at 1 µM under setting [1] turned out to be 95%.
As to `[O-][S+]1CCc2nc(N3CCN(c4ccc(Cl)c(F)c4)CC3)nc(Nc3cccc(F)c3)c21` (stereo not drawn) [Example 63, {2-[4-(4-CHLORO-3-FLUOROPHENYL)-PIPERAZIN-1-YL]-5-OXO-6,7-DIHYDRO-5H-5λ^4-THIENO[3,2-D]PYRIMIDIN-4-YL}-(3-FLUOROPHENYL)-AMINE], under setting [1], the inhibition at 1 µM is 95%.
For the compound `CN1C[C@@H](Nc2nc(N3CCN(c4ccc(Cl)c(F)c4)CC3)nc3c2[S+]([O-])CC3)CCC1=O` (stereo partly drawn) [Example 64, (S)-5-{2-[4-(4-CHLORO-3-FLUOROPHENYL)-PIPERAZIN-1-YL]-5-OXO-6,7-DIHYDRO-5H-5λ^4-THIENO[3,2-D]PYRIMIDIN-4-YLAMINO}-1-METHYLPIPERIDIN-2-ONE], the inhibition at 1 µM is 94%.
In the case of `Cc1cc(Cl)ccc1N1CCN(c2nc3c(c(Nc4cccc(F)c4)n2)[S+]([O-])CC3)CC1` (stereo not drawn) [Example 67, {2-[4-(4-CHLORO-2-METHYLPHENYL)-PIPERAZIN-1-YL]-5-OXO-6,7-DIHYDRO-5H-5λ^4-THIENO[3,2-D]PYRIMIDIN-4-YL}-(3-FLUOROPHENYL)-AMINE], the inhibition at 1 µM under setting [1] was 94%.

Values taken from patent publication US20110028441A1, “NOVEL PHENYL-SUBSTITUTED PIPERAZINO-DIHYDROTHIENOPYRIMIDINES” (BOEHRINGER INGELHEIM INTERNATIONAL GMBH, priority 2007, published 2011).
